Earlier results in patent US20260265214A1, “NOVEL DERIVATIVES OF GLYCEROL” (SYMRISE AG, priority 2023, published 2026).

Conditions: in 28 days

## CCCCCC1C(=O)CCC1CC(=O)OC (stereo not shown) [methyl dihydrojasmonate, methyl 2-(3′-oxo-2′-pentylcyclopentyl)acetate]
  readily biodegradable: 85%
